≈ marks a conversion by molar mass, not a printed value.
Assay: Solubility in water
Format: physicochemical

solubility: 0.79 µg/mL (≈ 3.29 µM)
SMILES: CC(C)Cn1cnc2c(N)nc3ccccc3c21 [imiquimod, 1-(2-methylpropyl)-1H-imidazo[4,5-c]quinolin-4-amine]
